{"source": "paper PMC1129089", "about": "“Identification and characterization of a novel mammalian Mg^2+ transporter with channel-like properties” (BMC Genomics, 2005)", "key": {"hMagT1 (human MagT1) [1]": {"target": "T1, hMagT1 (human MagT1) (Homo sapiens, UniProt Q9H0U3)", "T1 construct": "full-length ORF, 335 residues, 38,036 Da; subcloned in pEYFP-N1, cRNA injected in Xenopus laevis oocytes; no fusion tag stated", "T1 sequence (Q9H0U3 30-335)": "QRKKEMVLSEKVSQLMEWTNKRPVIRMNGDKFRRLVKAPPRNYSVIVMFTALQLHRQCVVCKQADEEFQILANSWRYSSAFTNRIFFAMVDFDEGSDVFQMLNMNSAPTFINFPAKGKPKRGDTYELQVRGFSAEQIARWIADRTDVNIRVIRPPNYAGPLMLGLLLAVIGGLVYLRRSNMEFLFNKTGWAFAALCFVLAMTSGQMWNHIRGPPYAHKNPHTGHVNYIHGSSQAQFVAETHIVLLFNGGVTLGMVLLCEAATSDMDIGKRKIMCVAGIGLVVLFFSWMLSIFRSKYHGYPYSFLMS", "assay": "two-microelectrode voltage clamp, Xenopus oocytes, Mg2+-evoked current", "format": "cell-based", "conditions": "10 μM compound, -125 mV, n = 5; activator; control current 0.59 ± 0.09 μA"}, "hMagT1 (human MagT1) [2]": {"target": "T1, hMagT1 (human MagT1)", "assay": "two-microelectrode voltage clamp, Xenopus oocytes, Mg2+-evoked current", "format": "cell-based", "conditions": "10 μM compound, -125 mV, n = 7; inhibitor; control current 0.59 ± 0.09 μA"}}}
{"smiles": "COC(=O)C1=C(C)NC(C)=C([N+](=O)[O-])C1c1ccccc1C(F)(F)F", "note": "(centres unmarked) [BAY K8644]", "values": [{"measurement": "current at 10 μM", "setting": "hMagT1 (human MagT1) [1]", "value": "0.80 ± 0.18", "unit": "μA"}]}
{"smiles": "CCOC(=O)C1=C(C)NC(C)=C(C(=O)OC)C1c1cccc([N+](=O)[O-])c1", "note": "(centres unmarked) [nitrendipine]", "values": [{"measurement": "residual current at 10 μM", "setting": "hMagT1 (human MagT1) [2]", "value": "0.15 ± 0.02", "unit": "μA"}]}
